This note sets out measurements from patent US12440475B2, “Hodgkin lymphoma therapy” (priority 2016, dated 2025).

Molecules are shown by their SMILES. Values joined by “and” are separate entries in the source; they are usually repeats but may differ in a detail not shown here. Equal entries are not always repeated.

For one assay, the system named is L540. The experiment in a line: Apoptosis by annexin V-FITC and Hoechst double staining, L540. The note with it: 5 μM, 24 h and 48 h. Type of assay: cell-based, human. As for the experimental part:
(§1) This assay was performed on 7 cell lines (HDLM2 was excluded due to the low number of available cells) at 24 h and 48 h following EDO-S101 treatment (5 μM, DMSO). Control cells were cultured in the same final concentration of DMSO. Only viable cells (using Hoechst staining) were focused on, and all necrotic cells were excluded. Apoptosis was determined using annexin V-FITC and Hoechst (33342) double staining according to the manufacturer's instructions (BD Biosciences). Cell-cycle fractions were determined by Hoechst nuclear staining. Briefly, cells were harvested, washed in PBS, incubated with annexin V-FITC and Hoechst solution for 30 minutes at room temperature. Data were collected using a FACSCalibur flow cytometer (BD Biosciences) and analyzed with FlowJo Version 7.5.5 obtainable from FlowJo, LLC. Results represent the mean value of 3 independent experiments.

The subject of assay [1] is Hodgkin lymphoma cell lines. The experiment in a line: Apoptosis by annexin V-FITC and Hoechst double staining, 7 cell lines. As to conditions: 5 μM; 24 h and 48 h; all cells. The class given is cell-based, human. As for the experimental part:
as §1

The test system of the next assay is L428 cells. Nature of the assay: L428 xenograft in NSG mice, histopathology (HE staining and CD30 immunohistochemistry). Type of assay: in vivo. More on the design: key to Liver, Tumor cell infiltration, focal/multifocal (score per animal) / Liver, Tumor cell necrosis/Apoptosis (score per animal) / Eye and/or periocular mucosa, periocular tumor cell infiltration, focal/multifocal/diffuse (score per animal) / Tumor/Eye, Tumor cell necrosis/appotosis (score per animal): 0: within physiological limits; 1: minimal; 2: mild; 3: moderate; 4: marked; 5: severe. From the text: Immunodeficient NOD-SCID-gammac−/− (NSG) mice aged 5 to 6 weeks were purchased from Charles River (NOD.Cg-Prkdcscid II2rgtm1Wjl/SzJ). The mice arrived two weeks before the beginning of the experiments and were housed in micro-isolator cages during the entire course of the study. Immediately prior to the injection of Hodgkin lymphoma cells, mice were exposed to 3 Gy gamma irradiation using an IBL637 ^137Cs irradiator at a dose rate of 0.61 Gy/min. From 10^3 to 10^6 cells, either from the original cell lines or following amplification, were injected intravenously via the retro-orbital sinus. The mice were sacrificed by cervical dislocation and different organs were analysed and tumoural infiltration examined using multiple techniques.
Two independent experiments were performed to investigate the dose-effect of EDO-S101 in NSG mice eight weeks after xenografting with L428 cells as in Example 8. The aim of the protocol shown in FIG. 8B was to evaluate the effect of sequential treatment with a moderate dose of 60 mg/kg given at an interval of three weeks.
The mice were sacrificed by cervical dislocation. The sampled organs consisted of the eyes (site of injection), liver, spleen and bone marrow. Following dissection of different organs, including tumours, the first portion was used for flow cytometry (FACS) and cytogenetic analyses while the second was fixed in 4% paraformaldehyde (PFA) for immunohistochemistry (IHC). To obtain a single cell suspension, the tissues were first cut into pieces. Thereafter, the cells were physically disaggregated using an 80 μm nylon cell strainer and filtered a second time through a 70 μm nylon cell strainer (BD Biosciences, Erembodegem, Belgium).
Organs were fixed in 4% PFA, trimmed and post-fixed in 70° ethanol. They were then briefly processed using a vacuum inclusion processor and paraffin blocks were prepared. Five micrometer-thick sections were cut from these blocks and the resulting sections were stained with hemotoxylin-eosine (H&E) for histopathological analysis. In addition, IHC was carried out on of the totality of liver and spleen specimens for confirmation of the spread of engrafted cells. The search for single cells or small groups of grafted Hodgkin lymphoma cells was performed using an anti-CD30 antibody (DAKO, France; 1:40, EDTA pH9 pre-treatment) and the Ventana Discovery XT IHC system. Apoptosis and tumour necrosis were analysed.
Microscopic findings were assigned a severity score based upon the following scale: “0”=within physiological limits, “1”=minimal, “2”=mild, “3”=moderate, “4”=marked, “5”=severe. This severity score was attributed according to the size and number of observed lesions.

On to `Cn1c(CCCCCCC(=O)NO)nc2cc(N(CCCl)CCCl)ccc21` [EDO-S101], for which the results for the sensitivity for apoptosis entry (in the assay on L540; in assay [1]) were “higher sensitivity” and “high sensitivity”, respectively. For the same compound, the “tumour masses in liver” value in the assay on L428 cells (80 mg/kg) is reported as “No tumour masses were observed in the liver”. For the same compound, in the assay with L428 cells (80 mg/kg or 60 mg/kg), the “tumour cell degeneration (necrosis/apoptosis)” value is listed as “No cell necerosis was observed”. For the same compound, the “Eye and/or periocular mucosa, periocular tumor cell infiltration, focal/multifocal/diffuse (score per animal)” value in the assay with L428 cells (1*60 mg/kg, 60 mg/kg) was 5 and 4 (2×) and 3; with L428 cells (1*80 mg/kg) it was 5; in the assay on L428 cells (2*60 mg/kg) it was 4. The “Liver, Tumor cell infiltration, focal/multifocal (score per animal)” value was 2 and 1 and 3 in the assay on L428 cells (1*60 mg/kg, 60 mg/kg); 1 (3×) and 0 and 2 with L428 cells (2*60 mg/kg, 60 mg/kg). For the same compound, the “Tumor/Eye, Tumor cell necrosis/appotosis (score per animal)” value is 0 (2×) and 1 (2×) with L428 cells (1*60 mg/kg, 60 mg/kg); 1 in the assay with L428 cells (1*80 mg/kg); 4 and 2 (2×) with L428 cells (2*60 mg/kg, 60 mg/kg). Moreover, the “Liver, Tumor cell necrosis/Apoptosis (score per animal)” value in the assay on L428 cells (2*60 mg/kg) worked out at 0. Besides, in the assay with L428 cells (2*60 mg/kg), the “Tumor tissue, without connection to other organs (per animal)” value is recorded as “yes”. The tumour regression entry is “significant tumour regression” in the assay on L428 cells (single dose of 60 mg/kg); “Significant tumour regression” with L428 cells (two administrations of 60 mg/kg three weeks apart, versus control and single 60 mg/kg). Moreover, in the assay with L428 cells (single injection 60 or 80 mg/kg, or two injections of 60 mg/kg three weeks apart), the “severity of tumoural cell infiltration” value was “significant decrease in the severity of tumoural cell infiltration”.
